Test results published in US8536354B2, “Steroidal ligands and their use in gene switch modulation” (Intrexon Corporation, priority 2008, dated 2013).
Read-outs that look alike come from different tables or passages of the source.

How the values were obtained:
[1] = tested on: D. melanogaster BII cell line (expresses the ecdysteroid receptor complex EcR-USP); assay: Drosophila melanogaster BII cell line bioassay (turbidometric; agonist and antagonist versions); conditions: for EC50: read-out: EC50 (M), BII bioassay results
[2] = target: wild-type Aedes aegypti EcR (AaEcR; GAL4-EcR DEF with VP16-RXR-USP chimera) (Aedes aegypti, UniProt P49880); assay: Two-hybrid gene switch assay, luciferase reporter, wild-type AaEcR, mouse NIH3T3 cells; assay type: cell-based; conditions: read-out: EC50
Chain of wild-type Aedes aegypti EcR (AaEcR; GAL4-EcR DEF with VP16-RXR-USP chimera) (P49880 with tags, fused parts or gaps limits assumed, change not shown): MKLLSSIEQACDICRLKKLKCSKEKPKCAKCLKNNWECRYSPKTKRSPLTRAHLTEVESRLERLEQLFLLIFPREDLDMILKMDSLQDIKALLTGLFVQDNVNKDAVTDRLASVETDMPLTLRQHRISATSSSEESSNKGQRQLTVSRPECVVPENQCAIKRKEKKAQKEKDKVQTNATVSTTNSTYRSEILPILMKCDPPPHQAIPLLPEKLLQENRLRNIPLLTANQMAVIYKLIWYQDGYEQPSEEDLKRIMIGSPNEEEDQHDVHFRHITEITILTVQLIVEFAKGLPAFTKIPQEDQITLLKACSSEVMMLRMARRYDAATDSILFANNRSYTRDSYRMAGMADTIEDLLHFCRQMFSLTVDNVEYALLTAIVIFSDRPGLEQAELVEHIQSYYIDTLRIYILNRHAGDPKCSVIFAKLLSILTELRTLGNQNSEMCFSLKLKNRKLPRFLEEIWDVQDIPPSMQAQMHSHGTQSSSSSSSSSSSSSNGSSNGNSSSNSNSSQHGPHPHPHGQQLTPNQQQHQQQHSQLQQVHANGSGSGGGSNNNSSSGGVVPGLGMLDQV

[3] = target: wild-type Drosophila melanogaster EcR (DmEcR; GAL4-EcR DEF with VP16-RXR-USP chimera) (Drosophila melanogaster, UniProt P34021); assay: Two-hybrid gene switch assay, luciferase reporter, wild-type DmEcR, mouse NIH3T3 cells; assay type: cell-based
Chain of wild-type Drosophila melanogaster EcR (DmEcR; GAL4-EcR DEF with VP16-RXR-USP chimera) (P34021 with tags, fused parts or gaps limits assumed): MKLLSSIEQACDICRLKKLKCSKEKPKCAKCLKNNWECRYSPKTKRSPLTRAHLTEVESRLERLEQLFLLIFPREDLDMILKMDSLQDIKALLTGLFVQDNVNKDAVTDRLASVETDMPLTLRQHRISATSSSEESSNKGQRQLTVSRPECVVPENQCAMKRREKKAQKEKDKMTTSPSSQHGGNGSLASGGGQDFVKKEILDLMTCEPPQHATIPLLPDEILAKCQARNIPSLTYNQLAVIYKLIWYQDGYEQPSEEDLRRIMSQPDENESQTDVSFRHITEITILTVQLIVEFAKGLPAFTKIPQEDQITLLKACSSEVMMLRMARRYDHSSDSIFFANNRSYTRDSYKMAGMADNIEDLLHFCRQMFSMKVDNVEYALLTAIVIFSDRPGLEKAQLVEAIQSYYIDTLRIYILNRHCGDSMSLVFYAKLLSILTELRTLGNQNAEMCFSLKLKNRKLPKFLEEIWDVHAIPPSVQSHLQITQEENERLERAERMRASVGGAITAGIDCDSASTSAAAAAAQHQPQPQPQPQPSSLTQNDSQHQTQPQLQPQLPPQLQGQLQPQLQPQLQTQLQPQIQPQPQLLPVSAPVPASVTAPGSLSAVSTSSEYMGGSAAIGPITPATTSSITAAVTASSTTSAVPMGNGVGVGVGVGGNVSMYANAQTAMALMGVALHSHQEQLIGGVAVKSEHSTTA

[4] = target: BmEcR (GAL4-EcR DEF with VP16-RXR-USP chimera) (Bombyx mori, UniProt P49881); assay: Two-hybrid gene switch assay, luciferase reporter, BmEcR, mouse NIH3T3 cells; assay type: cell-based; conditions: read-out: EC50
Chain of BmEcR (GAL4-EcR DEF with VP16-RXR-USP chimera) (P49881 other isoform, or with tags, fused parts or gaps, change not shown): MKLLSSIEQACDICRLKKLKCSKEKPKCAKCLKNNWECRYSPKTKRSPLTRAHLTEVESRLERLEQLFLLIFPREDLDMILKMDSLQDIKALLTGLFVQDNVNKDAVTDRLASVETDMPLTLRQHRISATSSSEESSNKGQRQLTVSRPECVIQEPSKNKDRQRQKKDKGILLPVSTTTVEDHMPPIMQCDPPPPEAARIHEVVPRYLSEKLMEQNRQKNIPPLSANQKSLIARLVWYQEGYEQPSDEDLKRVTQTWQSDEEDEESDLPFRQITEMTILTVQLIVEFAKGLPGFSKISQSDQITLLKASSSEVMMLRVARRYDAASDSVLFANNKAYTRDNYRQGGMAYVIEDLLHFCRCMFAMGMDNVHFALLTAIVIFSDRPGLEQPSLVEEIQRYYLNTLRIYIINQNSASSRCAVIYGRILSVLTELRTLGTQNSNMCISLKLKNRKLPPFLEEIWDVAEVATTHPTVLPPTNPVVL

[5] = target: T1, MsEcR (GAL4-EcR DEF with VP16-RXR-USP chimera) (Manduca sexta, UniProt P49883); assay: Two-hybrid gene switch assay, luciferase reporter, MsEcR, mouse NIH3T3 cells
T1 sequence (P49883 1-556): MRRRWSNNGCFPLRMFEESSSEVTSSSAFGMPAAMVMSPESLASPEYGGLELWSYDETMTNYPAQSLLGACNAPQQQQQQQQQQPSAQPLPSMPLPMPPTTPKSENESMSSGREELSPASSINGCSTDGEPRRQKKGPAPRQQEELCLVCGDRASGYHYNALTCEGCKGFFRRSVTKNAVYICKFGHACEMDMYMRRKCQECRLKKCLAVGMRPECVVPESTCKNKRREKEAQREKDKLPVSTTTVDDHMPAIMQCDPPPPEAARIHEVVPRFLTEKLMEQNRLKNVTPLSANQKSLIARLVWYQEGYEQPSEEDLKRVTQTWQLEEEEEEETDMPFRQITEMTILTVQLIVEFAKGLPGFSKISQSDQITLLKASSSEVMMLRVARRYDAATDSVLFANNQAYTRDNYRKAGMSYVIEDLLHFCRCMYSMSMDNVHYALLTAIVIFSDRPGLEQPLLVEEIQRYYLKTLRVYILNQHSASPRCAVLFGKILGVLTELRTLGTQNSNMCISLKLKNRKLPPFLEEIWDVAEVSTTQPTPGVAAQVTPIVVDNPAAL
T1 sequence (P28702 1-533 partner): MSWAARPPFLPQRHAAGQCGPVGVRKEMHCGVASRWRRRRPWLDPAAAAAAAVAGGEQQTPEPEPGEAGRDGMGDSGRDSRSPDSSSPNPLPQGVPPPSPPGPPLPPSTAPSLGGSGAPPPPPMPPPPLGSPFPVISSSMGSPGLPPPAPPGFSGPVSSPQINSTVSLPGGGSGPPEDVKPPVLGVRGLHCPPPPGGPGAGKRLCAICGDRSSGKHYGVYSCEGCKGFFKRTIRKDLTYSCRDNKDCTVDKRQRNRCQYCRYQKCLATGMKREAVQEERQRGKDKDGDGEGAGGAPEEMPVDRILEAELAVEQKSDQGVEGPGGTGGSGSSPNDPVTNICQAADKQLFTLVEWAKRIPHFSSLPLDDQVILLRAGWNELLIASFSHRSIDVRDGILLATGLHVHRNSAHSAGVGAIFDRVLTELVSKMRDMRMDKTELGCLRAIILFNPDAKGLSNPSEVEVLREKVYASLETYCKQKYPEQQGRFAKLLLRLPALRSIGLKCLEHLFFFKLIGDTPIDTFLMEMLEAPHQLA

[6] = target: T2, BaEcR (GAL4-EcR DEF with VP16-RXR-USP chimera) (Bemisia tabaci, UniProt A0A6M3RDR8); assay: Two-hybrid gene switch assay, luciferase reporter, BaEcR, mouse NIH3T3 cells
T2 sequence (A0A6M3RDR8 115-530): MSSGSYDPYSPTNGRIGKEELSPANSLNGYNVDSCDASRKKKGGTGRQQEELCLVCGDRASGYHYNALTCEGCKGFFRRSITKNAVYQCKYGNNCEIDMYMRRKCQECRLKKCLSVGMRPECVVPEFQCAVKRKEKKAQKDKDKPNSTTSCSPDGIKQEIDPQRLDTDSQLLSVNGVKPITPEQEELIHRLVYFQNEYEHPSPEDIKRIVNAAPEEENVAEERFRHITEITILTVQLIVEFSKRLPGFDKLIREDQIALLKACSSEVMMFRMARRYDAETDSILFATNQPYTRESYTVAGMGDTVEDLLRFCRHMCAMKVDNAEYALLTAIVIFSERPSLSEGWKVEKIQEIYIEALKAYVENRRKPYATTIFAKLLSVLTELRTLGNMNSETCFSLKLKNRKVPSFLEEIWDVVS
T2 sequence (P28702 1-533 partner): T1 sequence (P28702 1-533 partner)

[7] = tested on: NcEcR (GAL4-EcR DEF with VP16-RXR partner); assay: Two-hybrid gene switch assay, luciferase reporter, NcEcR, mouse NIH3T3 cells; conditions: FIG. 16, GAL4-EcR (DEF)
[8] = target: T3, TmEcR (GAL4-EcR DEF with VP16-RXR partner) (Tenebrio molitor, UniProt O02035); assay: Two-hybrid gene switch assay, luciferase reporter, TmEcR, mouse NIH3T3 cells
T3 sequence (O02035 194-491): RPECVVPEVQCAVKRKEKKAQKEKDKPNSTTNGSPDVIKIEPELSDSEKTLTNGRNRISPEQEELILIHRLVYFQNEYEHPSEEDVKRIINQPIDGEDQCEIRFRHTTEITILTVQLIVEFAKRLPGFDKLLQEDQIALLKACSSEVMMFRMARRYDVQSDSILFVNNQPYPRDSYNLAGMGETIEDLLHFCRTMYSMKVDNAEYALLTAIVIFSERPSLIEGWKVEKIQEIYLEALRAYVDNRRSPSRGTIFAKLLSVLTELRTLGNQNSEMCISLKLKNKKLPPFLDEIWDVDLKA
T3 sequence (P28704 1-520 partner): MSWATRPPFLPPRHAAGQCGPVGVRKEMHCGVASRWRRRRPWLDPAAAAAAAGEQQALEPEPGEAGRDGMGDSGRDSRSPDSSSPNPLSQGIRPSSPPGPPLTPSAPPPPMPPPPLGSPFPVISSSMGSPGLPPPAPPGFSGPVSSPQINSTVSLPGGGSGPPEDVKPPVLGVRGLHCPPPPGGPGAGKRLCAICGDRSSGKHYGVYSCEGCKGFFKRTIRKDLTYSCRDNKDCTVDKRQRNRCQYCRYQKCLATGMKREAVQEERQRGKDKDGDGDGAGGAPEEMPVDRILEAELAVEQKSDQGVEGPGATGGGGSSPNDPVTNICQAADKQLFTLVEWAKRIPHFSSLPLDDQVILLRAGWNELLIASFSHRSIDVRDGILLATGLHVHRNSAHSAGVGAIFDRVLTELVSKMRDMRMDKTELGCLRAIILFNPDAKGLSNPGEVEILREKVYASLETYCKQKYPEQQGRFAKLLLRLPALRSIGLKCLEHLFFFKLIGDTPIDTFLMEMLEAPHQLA

[9] = target: T4, AmaEcR (GAL4-EcR DEF with VP16-RXR-USP chimera) (Amblyomma americanum, UniProt O44338); assay: Two-hybrid gene switch assay, luciferase reporter, AmaEcR, mouse NIH3T3 cells
T4 sequence (O44338 255-570): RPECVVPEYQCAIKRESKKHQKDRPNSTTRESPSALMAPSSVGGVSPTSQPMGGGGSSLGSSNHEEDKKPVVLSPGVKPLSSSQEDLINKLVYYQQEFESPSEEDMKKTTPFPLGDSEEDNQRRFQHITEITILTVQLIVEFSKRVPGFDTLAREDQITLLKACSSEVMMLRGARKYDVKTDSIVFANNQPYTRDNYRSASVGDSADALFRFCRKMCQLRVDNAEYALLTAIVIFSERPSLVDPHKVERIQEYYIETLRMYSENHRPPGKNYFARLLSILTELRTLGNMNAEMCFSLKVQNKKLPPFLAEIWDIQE
T4 sequence (P28702 1-533 partner): T1 sequence (P28702 1-533 partner)

[10] = D. melanogaster BII cell line, turbidometric
[11] = EC50, FIG. 14A/14B, GAL4-EcR(DEF) with VP16-RXR-USP chimera
[12] = EC50, FIG. 16, GAL4-EcR (DEF) / VP16-RXR-USP chimera

Row | SMILES | EC50 [1, 10] [M] | EC50 ([1]; Drosophila melanogaster) [M] | also measured
1 | CO[C@H]1C[C@@]2(C)[C@@H](C[C@H]1O)C(=O)C=C1[C@@H]2CC[C@]2(C)[C@@H]([C@@](C)(O)C(O)CCC(C)(C)O)CC[C@@]12O (stereo partly drawn) [compound 1, 20-hydroxyecdysone, 2-methyl ether] | 1.1e-06 |  | 
2 | CO[C@@]12CCC([C@@](C)(O)[C@H](O)CCC(C)(C)O)C1(C)CCC1C2=CC(=O)C2C[C@@H](O)[C@@H](O)CC21C (stereo partly drawn) [compound 3, 20-hydroxyecdysone, 14-methyl ether] |  | 3.2e-06 | 
3 | CCCO[C@H](CCC(C)(C)O)[C@](C)(O)C1CC[C@@]2(O)C3=CC(=O)C4C[C@@H](O)[C@@H](O)CC4(C)C3CCC12C (stereo partly drawn) [compound 6, 20-hydroxyecdysone, 22-n-propyl ether] |  | 8.3e-07 | 
4 | C=CCO[C@H](CCC(C)(C)O)[C@](C)(O)C1CC[C@@]2(O)C3=CC(=O)C4C[C@@H](O)[C@@H](O)CC4(C)C3CCC12C (stereo partly drawn) [compound 7, 20-hydroxyecdysone, 22-allyl ether] |  | 1.6e-07 | 
5 | CCCCO[C@H](CCC(C)(C)O)[C@](C)(O)C1CC[C@@]2(O)C3=CC(=O)C4C[C@@H](O)[C@@H](O)CC4(C)C3CCC12C (stereo partly drawn) [compound 8, 20-hydroxyecdysone, 22-n-butyl ether] |  | 1e-07 | 
6 | CC(C)(O)CC[C@@H](OCc1ccccc1)[C@](C)(O)C1CC[C@@]2(O)C3=CC(=O)C4C[C@@H](O)[C@@H](O)CC4(C)C3CCC12C (stereo partly drawn) [compound 9, 20-hydroxyecdysone, 22-benzyl ether] |  | 2.2e-08 | BII potency relative to 20E [1]: does not decrease 20E potency very much
7 | COC(C)(C)CC[C@@H](O)[C@](C)(O)[C@H]1CC[C@@]2(O)C3=CC(=O)[C@@H]4C[C@@H](O)[C@@H](O)C[C@]4(C)[C@H]3CC[C@]12C [compound 10, 20-hydroxyecdysone-25-methyl ether] | 6e-08 |  | 
8 | CO[C@H]1C[C@@]2(C)[C@@H](C[C@H]1O)C(=O)C=C1[C@@H]2CC[C@]2(C)[C@@H]([C@@](C)(O)[C@@H](CCC(C)(C)O)OC)CC[C@@]12O [compound 11, 20-hydroxyecdysone, 2,22-dimethyl ether] | 9.3e-07 |  | 
9 | CO[C@H](CCC(C)(C)O)[C@](C)(O)C1CC[C@@]2(OC)C3=CC(=O)C4C[C@@H](O)[C@@H](O)CC4(C)C3CCC12C (stereo partly drawn) [compound 13, 20-hydroxyecdysone, 14,22-dimethyl ether] |  | 2.5e-06 | 
10 | CO[C@H](CCC(C)(C)OC)[C@](C)(O)[C@H]1CC[C@@]2(O)C3=CC(=O)[C@@H]4C[C@@H](O)[C@@H](O)C[C@]4(C)[C@H]3CC[C@]12C [compound 14, 20-hydroxyecdysone, 22,25-dimethyl ether] | 1.2e-07 |  | 
11 | CO[C@H]1CC2(C)C(C[C@H]1OC)C(=O)C=C1C2CCC2(C)C([C@@](C)(O)[C@@H](CCC(C)(C)O)OC)CC[C@@]12OC (stereo partly drawn) [compound 15, 20-hydroxyecdysone, 2,3,14,22-tetramethyl ether] |  | 9e-05 | 
12 | CO[C@H]1C[C@@]2(C)[C@@H](C[C@H]1O)C(=O)C=C1[C@@H]2CC[C@]2(C)[C@@H]([C@@](C)(O)[C@H](O)CCC(C)C)CC[C@@]12O [compound 16, ponasterone A, 2-methyl ether] | 4.3e-08 |  | 
13 | CO[C@@]12CC[C@H]([C@@](C)(O)[C@H](O)CCC(C)C)[C@@]1(C)CC[C@H]1C2=CC(=O)[C@@H]2C[C@@H](O)[C@@H](O)C[C@@]21C [compound 17, ponasterone A, 14-methyl ether] | 6e-08 |  | 
14 | CO[C@H]1C[C@@]2(C)[C@@H](C[C@H]1O)C(=O)C=C1[C@@H]2CC[C@]2(C)[C@@H]([C@@](C)(O)[C@@H](CCC(C)C)OC)CC[C@@]12O [compound 19, ponasterone A, 2,22-dimethyl ether] | 3e-08 |  | 
15 | COC(CCC(C)C)[C@](C)(O)[C@H]1CC[C@@]2(O)C3=CC(=O)[C@@H]4C[C@@H](OC)[C@@H](O)C[C@]4(C)[C@H]3CC[C@]12C (stereo partly drawn) [compound 20, ponasterone A, 3,22-dimethyl ether] | 1.2e-08 |  | 
16 | CC(=O)C1CCC2(O)C3=CC(=O)C4CC(O)C(O)CC4(C)C3CCC12C (stereo not drawn) [poststerone] |  |  | EC50 ([2]; FIG. 14A/14B, GAL4-EcR(DEF) with VP16-RXR-USP chimera): > 33000 nM; EC50 ([2]; FIG. 16, GAL4-EcR (DEF) / VP16-RXR-USP chimera): 10500 nM; EC50 [3, 11]: > 33000 nM; EC50 [3, 12]: > 33000 nM; EC50 [4]: > 33000 nM; EC50 ([5]; EC50, FIG. 13A/13B, GAL4-EcR(DEF) with VP16-RXR-USP chimera): > 33000 nM; EC50 ([5]; EC50, FIG. 15, GAL4-EcR (DEF) / VP16-RXR-USP chimera): > 33000 nM; EC50 [6, 11]: > 33000 nM; EC50 [6, 12]: > 33000 nM; EC50 [7]: ~10000 nM; EC50 ([8]; EC50, FIG. 14A/14B, GAL4-EcR(DEF)): > 33000 nM; EC50 ([8]; EC50, FIG. 16, GAL4-EcR (DEF)): > 33000 nM; EC50 [9, 11]: > 33000 nM; EC50 [9, 12]: ~10000 nM
